Experimental data published in US11529350B2, “Tyrosine kinase non-receptor 1 (TNK1) inhibitors and uses thereof” (Sumitomo Pharma Oncology, Inc., priority 2019, dated 2022).

Each molecule was assayed against T1, TNK1 (Homo sapiens, UniProt Q13470) (assay: RBC HotSpot Kinase Assay). Settings: ATP 10 μM.
T1 sequence (Q13470 1-666): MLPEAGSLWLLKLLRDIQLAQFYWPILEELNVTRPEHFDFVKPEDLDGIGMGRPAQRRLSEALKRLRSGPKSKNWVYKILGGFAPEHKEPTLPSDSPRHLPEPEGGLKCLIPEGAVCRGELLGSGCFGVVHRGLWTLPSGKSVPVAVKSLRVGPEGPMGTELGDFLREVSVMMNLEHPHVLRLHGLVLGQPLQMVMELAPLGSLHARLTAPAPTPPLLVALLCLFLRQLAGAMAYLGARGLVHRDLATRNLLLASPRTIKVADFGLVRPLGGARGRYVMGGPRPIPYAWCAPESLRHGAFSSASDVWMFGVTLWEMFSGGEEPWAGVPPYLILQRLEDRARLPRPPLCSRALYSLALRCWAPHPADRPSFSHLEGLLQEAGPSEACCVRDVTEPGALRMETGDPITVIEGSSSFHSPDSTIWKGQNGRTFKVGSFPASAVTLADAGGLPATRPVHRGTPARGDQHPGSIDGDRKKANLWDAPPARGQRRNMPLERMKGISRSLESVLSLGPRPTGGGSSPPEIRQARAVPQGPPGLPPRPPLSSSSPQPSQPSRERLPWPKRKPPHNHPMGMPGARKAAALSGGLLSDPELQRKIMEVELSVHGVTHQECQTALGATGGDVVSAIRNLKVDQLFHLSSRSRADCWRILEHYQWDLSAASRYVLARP
Assay type: biochemical
Set-up: purchased Reaction Biology Corp., Malvern, Pa
Protocol: The RBC HotSpot Kinase assay (Reaction Biology Corp., Malvern, Pa.) was used to evaluate the ability of test compounds to modulate (e.g., inhibit) the enzymatic activity of human TNK1 (UniProt Accession No. Q13470) in the following reaction:
Reagent: Base Reaction buffer; 20 mM Hepes (pH 7.5), 10 mM MgCl2, 1 mM EGTA, 0.02% Brij35, 0.02 mg/ml BSA, 0.1 mM Na3VO4, 2 mM DTT, 1% DMSO. Required cofactors were added individually to each kinase reaction.
Compound handling: Test compounds were dissolved in 100% DMSO to specific concentration. The serial dilution was conducted by Integra Viaflo Assist in DMSO.
1. Prepared substrate (peptide substrate, poly[Glu:Tyr] (4:1), 0.2 mg/ml; ATP 10 μM) in freshly prepared Reaction Buffer;
2. Delivered any required cofactors to the substrate solution;
3. Delivered kinase (TNK1) into the substrate solution and gently mixed;
4. Delivered compounds in 100% DMSO into the kinase reaction mixture by Acoustic technology (Echo550; nanoliter range), incubated for 20 minutes at room temperature;
5. Delivered ^33P-ATP (specific activity 10 μCi/μl) into the reaction mixture to initiate the reaction;
6. Incubated for 2 hours at room temperature;
7. Detected radioactivity by filter-binding method;
8. Kinase activity data were expressed as the percent remaining kinase activity in test samples compared to vehicle (dimethyl sulfoxide) reactions. IC50 values and curve fits were obtained using Prism (GraphPad Software).

SMILES | IC50
COc1cc(N2CCN(C)CC2)c(Cl)cc1Nc1ncc(Br)c(Nc2cccnc2N(C)C)n1 [Example No. 22, 5-bromo-N-(5-chloro-2-methoxy-4-(4-methylpiperazin-1-yl)phenyl)-N-(2-(dimethylamino)pyridin-3-yl)pyrimidine-2,4-diamine] | < 5 nM
CN1CCN(c2c(Cl)cc(Nc3ncc(Cl)c(Nc4cccnc4N4CCCC4=O)n3)c3c2CCCO3)CC1 [Example No. 26, 1-(3-((5-chloro-2-((6-chloro-5-(4-methylpiperazin-1-yl)chroman-8-yl)amino)pyrimidin-4-yl)amino)pyridin-2-yl)pyrrolidin-2-one] | < 5 nM
COc1cc(N2CCN(C)CC2)c(Cl)cc1Nc1ncc(Br)c(Nc2cccnc2N2CCCC2=O)n1 [Example No. 23, 1-(3-((5-bromo-2-((5-chloro-2-methoxy-4-(4-methylpiperazin-1-yl)phenyl)amino)pyrimidin-4-yl)amino)pyridin-2-yl)pyrrolidin-2-one] | < 5 nM
CN1CCN(c2c(Cl)cc(Nc3ncc(Cl)c(Nc4cccnc4N4CCCC4=O)n3)c3cccnc23)CC1 [Example No. 24, 1-(3-((5-chloro-2-((7-chloro-8-(4-methylpiperazin-1-yl)quinolin-5-yl)amino)pyrimidin-4-yl)amino)pyridin-2-yl)pyrrolidin-2-one] | < 5 nM
COc1cc(N2CCN(C)CC2)c(C)cc1Nc1ncc(Br)c(Nc2ccncc2N(C)C)n1 [Example No. 25, 5-bromo-N-(3-(dimethylamine)pyridin-4-yl)-N-(2-methoxy-5-methyl-4-(4-methylpiperazin-1-yl)phenyl)pyrimidine-2,4-diamine] | < 5 nM

More lines, now with the values ahead:

IC50 | SMILES
< 5 nM | [2H]C([2H])([2H])N1CCN(c2cc(OC)c(Nc3ncc(Cl)c(Nc4cccnc4N4CCCC4=O)n3)cc2Cl)CC1 [Example No. 29, 1-(3-((5-chloro-2-((5-chloro-2-methoxy-4-(4-(methyl-d3)piperazin-1-yl)phenyl)amino)pyrimidin-4-yl)amino)pyridin-2-yl)pyrrolidin-2-one]
< 5 nM | COc1cc(N2CCN(CCO)CC2)c(Cl)cc1Nc1ncc(Cl)c(Nc2cccnc2N2CCCC2=O)n1 [compound 30, 1-(3-((5-chloro-2-((5-chloro-4-(4-(2-hydroxyethyl)piperazin-1-yl)-2-methoxyphenyl)amino)pyrimidin-4-yl)amino)pyridin-2-yl)pyrrolidin-2-one]
< 5 nM | [2H]C([2H])([2H])N(c1ncccc1Nc1nc(Nc2cc(C)c(N3CCN(C)CC3)cc2OC)ncc1Br)C([2H])([2H])[2H] [Example No. 27, N^4-(2-(bis(methyl-d3)amino)pyridin-3-yl)-5-bromo-N-(2-methoxy-5-methyl-4-(4-methylpiperazin-1-yl)phenyl)pyrimidine-2,4-diamine]
< 5 nM | COc1cc(N2CCNCC2)c(Cl)cc1Nc1ncc(Cl)c(Nc2cccnc2N2CCCC2=O)n1 [Example No. 28, 1-(3-((5-chloro-2-((5-chloro-2-methoxy-4-(piperazin-1-yl)phenyl)amino)pyrimidin-4-yl)amino)pyridin-2-yl)pyrrolidin-2-one]
